PubChem BioAssay (NCI)
Several values for one entry are separate records, joined by “and”; a condition that tells them apart may be missing. Identical values can stand only once.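 96-well plates; 48 h exposure; 5 concentrations. Endpoints by linear interpolation between flanking doses. Not reached: highest tested concentration assigned. GI50 is the concentration that inhibits growth by half. The concentration for full growth arrest is given as TGI.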

How the values were obtained:
Experiment in all cases: growth of human tumour cells (NCI), 48 h
MDA-MB-231 breast = tested on: MDA-MB-231 breast
EKVX NSCLC = tested on: EKVX NSCLC
HS 578T breast = tested on: HS 578T breast
SK-MEL-2 melanoma = tested on: SK-MEL-2 melanoma
A549 NSCLC = tested on: A549 NSCLC
SR leukemia = tested on: SR leukemia
HT29 colon = tested on: HT29 colon
RPMI-8226 leukemia = tested on: RPMI-8226 leukemia
MDA-N = tested on: MDA-N
SNB-78 CNS = tested on: SNB-78 CNS

Structure (SMILES) | TGI (MDA-MB-231 breast) [µM] | TGI (EKVX NSCLC) [µM] | TGI (HS 578T breast) [µM] | TGI (SK-MEL-2 melanoma) | TGI (A549 NSCLC) | TGI (SR leukemia) [µM] | TGI (HT29 colon) [µM] | TGI (RPMI-8226 leukemia) [µM] | TGI (MDA-N) [µM] | TGI (SNB-78 CNS) [µM] | GI50 (MDA-MB-231 breast) [µM] | GI50 (EKVX NSCLC) [µM] | GI50 (SK-MEL-2 melanoma) [µM]
CC1(C)CCC2(C(=O)OC3OC(CO)C(O)C(O)C3O)CCC3(C)C(=CCC4C5(C)CCC(OC6OC(CO)C(O)C(O)C6O)C(C)(C)C5CCC43C)C2C1 (stereo not drawn) | > 25 | > 25 | > 25 | 14.8 µM | > 25 µM | 10.7 | > 25 | 10.7 | – | – | – | – | –
N[C@H]1CCN(c2c(F)cc3c(=O)c(C(=O)O)cn4c3c2Oc2cc3c(ccc5ccccc53)cc2-4)C1 | 0.864 | 7.21 | – | 43.5 µM | > 100 µM | > 100 | 7.34 | 4 | > 100 | – | – | – | –
COc1ccc(N=c2ssc(C(=S)Nc3ccc(OC)cc3)c2S)cc1 | > 100 | > 100 | > 100 | > 100 µM | > 100 µM | > 100 | > 100 | > 100 | > 100 | – | – | – | –
Nc1ccc2c(c1)C(=O)N(O)C2=O | – | > 100 | – | – | > 100 µM | > 100 | > 100 | – | – | > 100 | – | – | –
CC1=C2C(=O)OCC23C=COC3(C)O1 (stereo not drawn) | > 100 | > 100 | > 100 | > 100 µM | > 100 µM | > 100 | > 100 | > 100 | > 100 | – | – | – | –
N#CC(c1ccccc1)N1CCCN(C(C#N)c2ccccc2)C1c1ccccc1O (stereo not drawn) | > 100 | > 100 | > 100 | > 100 µM | > 100 µM | > 100 | > 100 | > 100 | > 100 | – | – | – | –
CCOC(=O)/C(=C\NCC(OCC)OCC)c1nc2ccccc2[nH]1 | – | 95 | > 100 | 44.7 µM | > 100 µM | 58.5 | 71.1 | 39.5 | 85.2 | – | – | – | –
CN(C)CCn1c(=O)c2ccc3c4c(nn3CCN(C)C)c3cc(N)ccc3n(c1=O)c24 | 0.195 | 0.237 | 1.03 | 0.089 µM | 0.114 µM | > 42.5 | – | 60.7 | 0.0752 | – | – | – | –
COc1ccc(/C=C(\C#N)c2nc(N)nc(N3N=C(C)CC3(C)C)n2)c(O)c1 | 44.8 | 47.9 | 40 | 38.9 µM | 44.5 µM | 35.7 | 44.5 | 98.7 | – | – | – | – | –
O=CN1CCN(C(=O)c2cc(Cl)cc(Cl)c2)C1=S | 33.8 | 32.3 | 71.4 | 33 µM | 39.8 µM | – | 54.5 | 5.64 | 35.4 | – | – | – | –
CC(=O)OC1CC(O)CC2=CCC3C4CCC(C(C)(O)C(O)CC5COC(=O)C5C)C4(C)CCC3C21C (stereo not drawn) | > 25 | > 25 | > 25 | > 25 µM | > 25 µM | > 25 | > 25 | > 25 | > 25 | – | – | – | –
O=S1(=O)OC(c2ccc(O)cc2)(c2ccc(O)cc2)c2ccccc21 | > 100 | > 100 | > 100 | > 100 µM | > 100 µM | – | > 100 | > 100 | – | – | – | – | –
[O-][N+](CCO)(CCO)c1ncnc2nc[nH]c12 | > 100 | > 100 | > 100 | > 100 µM | > 100 µM | > 100 | > 100 | > 100 | > 100 | – | – | – | –
O=[n+]1c2c(n([O-])c3ccccc31)-c1cccc3cccc-2c13 | > 100 | – | > 100 | – | > 100 µM | > 100 | > 100 | – | > 100 | – | – | – | –
CC[C@@]1(O)C(=O)OCc2c1cc1n(c2=O)Cc2c-1nc1ccc(O)cc1c2CC[Si](C)(C)C | 12.9 | – | – | 0.576 µM and 1.17 µM | 0.24 µM and 0.167 µM | < 0.001 | – | 0.348 | – | – | 0.12 | 0.0181 | 0.0742
COc1ccc(N=C2C(=O)C3=C(OC(C)(C)CC3)c3ccccc32)cc1 | 5.44 | 1.86 | 48.8 | 2.46 µM | 1.94 µM | 3.44 | 1.57 | – | 1.26 | – | – | – | –
CCOC(=O)C1CCn2c(nc3c2c(=O)n(C)c(=O)n3C)S1 (stereo not drawn) | – | > 100 | – | > 100 µM | > 100 µM | > 100 | > 100 | > 100 | – | > 100 | – | – | –
Nc1nc(N)c2c(n1)NC(c1ccccc1)CC(/C=C/c1ccc(Cl)cc1)=N2 (stereo not drawn) | 18.4 | 17.3 | 9.94 | 42.7 µM | 60.8 µM | – | 15.2 | 12.7 | 24.4 | – | – | – | –
Cc1cc(O)c(C(C)C)cc1CN1CCCCC1 | > 100 | > 100 | > 100 | – | > 100 µM | – | > 100 | > 100 | > 100 | – | – | – | –
COC(=O)C1C(O)CCC2CN3CCc4c([nH]c5cccc(OC)c45)C3CC21 (stereo not drawn) | > 100 | > 100 | > 100 | > 100 µM | > 100 µM | > 100 | > 100 | > 100 | > 100 | – | – | – | –
